Values after ≈ are worked out from the molar mass of the structure shown.

Format in all cases: functional
The subject of test [1] is Staphylococcus aureus. The test can be described thus: Antibacterial activity against Staphylococcus aureus ATCC 25923 assessed as bacterial growth inhibition measured after 18 hrs by agar dilution assay. In general terms: In agar dilution, organisms are placed on agar that contains the substance at set levels.
For test [2], the system named is Escherichia coli. The test can be described thus: Antibacterial activity against Escherichia coli ATCC 25922 assessed as bacterial growth inhibition measured after 18 hrs by agar dilution assay.
In test [3] the test system is Escherichia coli. The test is described as follows: Potency index, ratio of ciprofloxacin MIC to test compound MIC for antimicrobial activity against Escherichia coli assessed as bacterial growth inhibition by agar cup diffusion assay.
Test [4] has as its system Staphylococcus aureus. The test can be described thus: Antibacterial activity against Staphylococcus aureus assessed as bacterial growth inhibition by broth microdilution assay.
The test system of test [5] is Pseudomonas aeruginosa. The test is described as follows: Antibacterial activity against Pseudomonas aeruginosa assessed as bacterial growth inhibition by broth microdilution assay.
The subject of test [6] is Staphylococcus aureus. The test can be described thus: Antibacterial activity against clinical isolate methicillin resistant Staphylococcus aureus assessed as bacterial growth inhibition by microdilution assay. (In general: In broth dilution the organism is exposed to a series of concentrations in liquid medium.)
Test [7] relates to Staphylococcus aureus. The test is described as follows: Antibacterial activity against Staphylococcus aureus ATCC 25923 assessed as bacterial growth inhibition by microdilution assay.
Test [8] relates to Escherichia coli. The test is described as follows: […] activity against Escherichia coli assessed as bacterial growth inhibition by broth dilution assay.
In test [9] the test system is Klebsiella pneumoniae. The test is described as follows: Antibacterial activity against Klebsiella pneumoniae assessed as bacterial growth inhibition by two fold microdilution assay.
Test [10] deals with Escherichia coli. The test can be described thus: Antibacterial activity against Escherichia coli ATCC 8739 assessed as bacterial growth inhibition by two fold microdilution assay.
Test [11] deals with Staphylococcus aureus. The test is described as follows: Antibacterial activity against Staphylococcus aureus ATCC 6538P assessed as bacterial growth inhibition by two fold microdilution assay.
Test [12] has as its system Escherichia coli. The test can be described thus: Antibacterial activity against Escherichia coli assessed as bacterial growth inhibition by broth microdilution assay.
Test [13] has as its system Escherichia coli. The test can be described thus: Antibacterial activity against Escherichia coli assessed as bacterial growth inhibition by two fold microdilution assay.
Test [14] concerns Staphylococcus aureus. The test is described as follows: Antibacterial activity against Staphylococcus aureus assessed as bacterial growth inhibition by two fold microdilution assay.
In test [15] the test system is Enterococcus faecalis. The test is described as follows: Antibacterial activity against Enterococcus faecalis assessed as bacterial growth inhibition by broth microdilution assay.
For test [16], the system named is Escherichia coli. The test is described as follows: Antibacterial activity against fluoroquinolone Escherichia coli assessed as bacterial growth inhibition by broth microdilution assay.
The subject of test [17] is Staphylococcus aureus. The test is described as follows: Antibacterial activity against methicillin resistant Staphylococcus aureus ATCC 33591 assessed as bacterial growth inhibition measured after 16 to 18 hrs by serial dilution method. Particulars: time 16-18 hrs.

`O=C(O)c1cn(C2CC2)c2cc(N3CCN(Cc4cn(-c5ccccc5)nn4)CC3)c(F)cc2c1=O`: the MIC in test [1] and in test [2] was 0.12 µg/mL (≈ 0.246 µM) in each case.

With `CCn1cc(C(=O)O)c(=O)c2cc(F)c(N3CCN(Cc4cn(-c5ccc([N+](=O)[O-])cc5)nn4)CC3)cc21`, the MIC in test [1] and in [2] was 0.12 µg/mL (≈ 0.23 µM) each time.

On to `CCn1cc(C(=O)O)c(=O)c2cc(F)c(N3CCN(Cc4cn(-c5ccccc5)nn4)CC3)cc21`, for which the MIC in [1] and in [2] was 0.12 µg/mL (≈ 0.252 µM) each time.

Take `Cc1ccc(-n2cc(CN3CCN(c4cc5c(cc4F)c(=O)c(C(=O)O)cn5C4CC4)CC3)nn2)cc1`: the MIC in test [1] and in [2] was 0.12 µg/mL (≈ 0.239 µM) throughout.

Turning to `CCn1cc(C(=O)O)c(=O)c2cnc(N3CCN(Cc4cn(-c5ccc([N+](=O)[O-])cc5)nn4)CC3)nc21`, the MIC in [1] and in test [2] was 0.12 µg/mL (≈ 0.237 µM) throughout.

For the molecule `CCn1cc(C(=O)O)c(=O)c2cnc(N3CCN(Cc4cn(-c5ccccc5)nn4)CC3)nc21`, the MIC in test [1] and in test [2] was 0.12 µg/mL (≈ 0.261 µM) in each case.

As for `CCn1nnnc1SCCC(=O)N1CCN(c2cc3c(cc2F)c(=O)c(C(=O)O)cn3C2CC2)CC1`, the Ratio in test [3] was 2.

Consider `COc1cc(-n2nnnc2SCCC(=O)N2CCN(c3cc4c(cc3F)c(=O)c(C(=O)O)cn4C3CC3)CC2)cc(OC)c1OC`, for which, in test [3], the Ratio worked out at 2.

As for `O=C(O)c1cn(C2CC2)c2cc(N3CCN(C(=O)CCSc4nnnn4-c4ccc(F)c(F)c4F)CC3)c(F)cc2c1=O`, in test [3], the Ratio stood at 2.

For `O=C(O)c1cn(C2CC2)c2cc(N3CCN(C(=O)CCSc4nnnn4-c4ccc(C(F)(F)F)cc4)CC3)c(F)cc2c1=O`, the Ratio in [3] is listed as 2.

On to `O=C(O)c1cn(C2CC2)c2cc(N3CCN(C(=O)CCSc4nnnn4-c4ccccc4)CC3)c(F)cc2c1=O`, for which, in [3], the Ratio turned out to be 2.

Regarding `O=C(O)c1cn(C2CC2)c2cc(N3CCN(C(=O)CCSc4nnnn4-c4ccc(Br)cc4)CC3)c(F)cc2c1=O`, the Ratio in test [3] is reported as 2.

Take `O=C(CSC(=S)N1CCN(c2cc3c(cc2F)c(=O)c(C(=O)O)cn3C2CC2)CC1)Nc1cccc(Cl)c1`: the minimal inhibitory concentration (MIC) in [4] and in [5] was 0.024 µg/mL (≈ 0.0417 µM) in each case.

On to `COc1c(N2C[C@H]3CCCN(S(=O)(=O)c4ccccc4)[C@H]3C2)c(F)cc2c(=O)c(C(=O)O)cn(C3CC3)c12`, for which the MIC in test [6] and in [7] was < 2.64 µg/mL in each case.

Consider `CCn1cc(C(=O)O)c(=O)c2cnc(N3CCN(Cn4nc(-c5ccc(OC)cc5)n(-c5ccc(C(C)(C)C)cc5)c4=S)CC3)nc21`, for which the MIC in test [8] was found to be 0.98 µg/mL (≈ 1.5 µM).

For the molecule `CCn1cc(C(=O)O)c(=O)c2cc(F)c(N3CCN(Cn4nc(-c5ccccc5O)n(-c5ccc(OC)cc5)c4=S)CC3)cc21`, the minimal inhibitory concentration (MIC) in test [9], in test [10] and in test [11] was ≤ 0.125 µg/mL in each case.

For the molecule `CCn1cc(C(=O)O)c(=O)c2cc(F)c(N3CCN(Cn4nc(-c5ccco5)oc4=S)CC3)cc21`, the minimum inhibitory concentration (MIC) in test [4], in [12] and in test [5] was ≤ 0.125 µg/mL each time.

Regarding `CCn1cc(C(=O)O)c(=O)c2cc(F)c(N3CCN(Cn4nc(-c5ccncc5)n(-c5ccc(OC)cc5)c4=S)CC3)cc21`, the MIC in test [9], in test [10] and in test [11] was ≤ 0.125 µg/mL each time.

Regarding `CCn1cc(C(=O)O)c(=O)c2cc(F)c(N3CCN(Cn4nc(Cn5nc(C)n(/N=C/c6ccccc6O)c5=O)n(-c5ccccc5)c4=O)CC3)cc21`, the figures for the MIC in test [13], in test [9] and in [14] were < 0.24 µg/mL, < 0.24 µg/mL and < 28 µg/mL, respectively.

In the case of `CCn1cc(C(=O)O)c(=O)c2cc(F)c(N3CCN(Cn4nc(-c5cnccn5)oc4=S)CC3)cc21`, the minimum inhibitory concentration (MIC) in [4], in [12] and in test [5] was ≤ 0.125 µg/mL each time.

Regarding `CCCCCOc1ccc(C2C(Cl)C(=O)N2c2cc3[nH]cc(C(=O)O)c(=O)c3cc2F)cc1` (stereo not drawn), the MIC in test [4], in [12], in [15] and in [16] was 0.02 µg/mL (≈ 0.0423 µM) throughout.

Regarding `Cc1ccc(-c2ccnc(Nc3ccc4c(=O)c(C(=O)O)cn(C5CC5)c4c3)n2)cc1C`, the MIC in test [17] worked out at 0.38 µg/mL (≈ 0.891 µM).

By MIC is commonly meant the lowest concentration found to suppress growth.

For the origin of these results see ChEMBL document CHEMBL5360532, “Current scenario of quinolone hybrids with potential antibacterial activity against ESKAPE pathogens” (Eur J Med Chem, 2023).
